Assay results reported in the supplement of paper PMC10307832.

Key:
Assay in all cases: relative viability (nuclei count vs DMSO), 5 days (fraction); higher = more cells survive
NCI-H1993 = tested on: NCI-H1993
Procedure, shortened: (§1)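 Relative viability divides the nuclei count in treated wells by that in vehicle wells. Lung cancer cell lines were seeded in 1536-well plates, dosed by pin tool the next day, and fixed and stained after 5 days in one step with final 0.05% Triton X-100, 1% formaldehyde and 1 ug/ml Hoechst. Dosing was a single drug or a fixed anchor-drug dose plus five library-drug doses (not always all listed) in √10 steps, and values are medians of duplicate plates imaged at 4×.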

NCI-H2009 = tested on: NCI-H2009
Procedure, shortened: as §1

NCI-H2170 = tested on: NCI-H2170
Procedure, shortened: as §1

NCI-H2228 = tested on: NCI-H2228
Procedure, shortened: as §1

NCI-H2347 = tested on: NCI-H2347
Procedure, shortened: as §1

NCI-H358 = tested on: NCI-H358
Procedure, shortened: as §1

NCI-H647 = tested on: NCI-H647
Procedure, shortened: as §1

NCI-H838 = tested on: NCI-H838
Procedure, shortened: as §1

PC-14 = tested on: PC-14
Procedure, shortened: as §1

SK-MES-1 = tested on: SK-MES-1
Procedure, shortened: as §1

UMC-11 = tested on: UMC-11
Procedure, shortened: as §1

Question: Which relative viability (NCI-H1993; first compound 0.08 µM) does the source give for `C=C1C(=O)O[C@@H](CCCCCCCC)[C@@H]1C(=O)O` [C-75] + Cc1nc(NC(=O)N2CCC[C@H]2C(N)=O)sc1-c1ccnc(C(C)(C)C(F)(F)F)c1 [Alpelisib] (partner 2 µM) here?
Answer: 0.694

Question: What about the relative viability (NCI-H1993; first compound 0.253 µM) of the same compound?
Answer: 0.738

Question: What about the relative viability (NCI-H1993; first compound 0.8 µM) of the same compound?
Answer: 0.66

Question: What about the relative viability (NCI-H1993; first compound 2.53 µM) of the same compound?
Answer: 0.637

Question: And the relative viability (NCI-H1993; first compound 8 µM)?
Answer: 0.727

Question: What about the relative viability (NCI-H2009; first compound 0.08 µM) of the same compound?
Answer: 1.17

Question: And the relative viability (NCI-H2009; first compound 0.253 µM)?
Answer: 1.14

Question: And the relative viability (NCI-H2009; first compound 0.8 µM)?
Answer: 1.18

Question: What about the relative viability (NCI-H2009; first compound 2.53 µM) of the same compound?
Answer: 1.14

Question: And the relative viability (NCI-H2009; first compound 8 µM)?
Answer: 1.03

Question: And the relative viability (NCI-H2170; first compound 0.08 µM)?
Answer: 0.796

Question: What about the relative viability (NCI-H2170; first compound 0.253 µM) of the same compound?
Answer: 0.779

Question: What about the relative viability (NCI-H2170; first compound 0.8 µM) of the same compound?
Answer: 0.776

Question: And the relative viability (NCI-H2170; first compound 2.53 µM)?
Answer: 0.741

Question: And the relative viability (NCI-H2170; first compound 8 µM)?
Answer: 0.713

Question: And the relative viability (NCI-H2228; first compound 0.08 µM)?
Answer: 0.751

Question: What about the relative viability (NCI-H2228; first compound 0.253 µM) of the same compound?
Answer: 1.01

Question: What about the relative viability (NCI-H2228; first compound 0.8 µM) of the same compound?
Answer: 0.73

Question: What about the relative viability (NCI-H2228; first compound 2.53 µM) of the same compound?
Answer: 0.604

Question: What about the relative viability (NCI-H2228; first compound 8 µM) of the same compound?
Answer: 0.744

Question: What about the relative viability (NCI-H2347; first compound 0.08 µM) of the same compound?
Answer: 1.01

Question: What about the relative viability (NCI-H2347; first compound 0.253 µM) of the same compound?
Answer: 0.987

Question: And the relative viability (NCI-H2347; first compound 0.8 µM)?
Answer: 1.12

Question: What about the relative viability (NCI-H2347; first compound 2.53 µM) of the same compound?
Answer: 0.956

Question: And the relative viability (NCI-H2347; first compound 8 µM)?
Answer: 1.09

Question: What about the relative viability (NCI-H358; first compound 0.08 µM) of the same compound?
Answer: 0.851

Question: And the relative viability (NCI-H358; first compound 0.253 µM)?
Answer: 0.735

Question: And the relative viability (NCI-H358; first compound 0.8 µM)?
Answer: 0.789

Question: What about the relative viability (NCI-H358; first compound 2.53 µM) of the same compound?
Answer: 0.859

Question: And the relative viability (NCI-H358; first compound 8 µM)?
Answer: 0.808

Question: And the relative viability (NCI-H647; first compound 0.08 µM)?
Answer: 0.972

Question: And the relative viability (NCI-H647; first compound 0.253 µM)?
Answer: 1.28

Question: What about the relative viability (NCI-H647; first compound 2.53 µM) of the same compound?
Answer: 1

Question: What about the relative viability (NCI-H647; first compound 8 µM) of the same compound?
Answer: 0.643

Question: What about the relative viability (NCI-H838; first compound 0.08 µM) of the same compound?
Answer: 0.949

Question: What about the relative viability (NCI-H838; first compound 0.253 µM) of the same compound?
Answer: 0.675

Question: And the relative viability (NCI-H838; first compound 0.8 µM)?
Answer: 0.928

Question: What about the relative viability (NCI-H838; first compound 2.53 µM) of the same compound?
Answer: 0.79

Question: What about the relative viability (NCI-H838; first compound 8 µM) of the same compound?
Answer: 0.919

Question: And the relative viability (PC-14; first compound 0.08 µM)?
Answer: 0.897

Question: And the relative viability (PC-14; first compound 0.253 µM)?
Answer: 1.02

Question: What about the relative viability (PC-14; first compound 0.8 µM) of the same compound?
Answer: 0.904

Question: And the relative viability (PC-14; first compound 2.53 µM)?
Answer: 0.901

Question: What about the relative viability (PC-14; first compound 8 µM) of the same compound?
Answer: 1.01

Question: What about the relative viability (SK-MES-1; first compound 0.08 µM) of the same compound?
Answer: 1.1

Question: And the relative viability (SK-MES-1; first compound 0.253 µM)?
Answer: 0.876

Question: What about the relative viability (SK-MES-1; first compound 0.8 µM) of the same compound?
Answer: 0.902

Question: And the relative viability (SK-MES-1; first compound 2.53 µM)?
Answer: 0.864

Question: What about the relative viability (SK-MES-1; first compound 8 µM) of the same compound?
Answer: 0.792

Question: And the relative viability (UMC-11; first compound 0.08 µM)?
Answer: 0.927

Question: And the relative viability (UMC-11; first compound 0.253 µM)?
Answer: 1.15

Question: What about the relative viability (UMC-11; first compound 0.8 µM) of the same compound?
Answer: 0.97

Question: What about the relative viability (UMC-11; first compound 2.53 µM) of the same compound?
Answer: 0.909

Question: What about the relative viability (UMC-11; first compound 8 µM) of the same compound?
Answer: 0.786
